Data on 30 compounds can be found in patent US6525059B1, “Substituted pyrazoles as p38 kinase inhibitors” (G. D. Searle & Company, priority 1998, dated 2003).

The target in assay [1] is T1, human p38 kinase alpha (Homo sapiens, UniProt Q16539).
T1 construct: The coding region of the human p38a cDNA was obtained by PCR-amplification from RNA isolated from the human monocyte cell line THP.1; GST (N); made in house; host or cells: E. coli DH10B
Briefly: p38 kinase in vitro assay, phosphorylation of biotinylated PHAS-I with gamma 32P-ATP. It counts as biochemical. The essentials: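 Radiometric filter-capture read-out: streptavidin plates trap biotin-PHAS-I labelled by activated (MKK6) human p38α from γ-32P-ATP. Buffer 25 mM HEPES pH 7.5, 10 mM magnesium acetate, 50 μM cold ATP; reactions 1 h or overnight at 30 °C; inhibitors 10-fold dilutions 100 to 0.001 μM, triplicates, 1% DMSO.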

Assay [2] concerns human TNF. Briefly: TNF inhibition: human whole blood assay. It counts as cell-based. The note with it: Homo sapiens. Here is the method: Human peripheral blood is obtained in heparinized tubes. A 190 μL aliquot of blood is placed in each well of a 96 well u-bottom plate. […] After one hour of incubation at 37° C., […] of lipopolysaccharide (Salmonella typhosa, Sigma) in phosphate buffered saline is added resulting in a final concentration of […]. After four to five hours of incubation at 37° C., the supernatants are harvested and assayed at 1:10 or 1:20 dilutions for human TNF using ELISA.

The subject of assay [3] is TNF-α. Briefly: Rat assay: LPS-challenged rats, serum TNF-α by ELISA. As to conditions: for inhibition in vivo at 1 mg/kg: read-out: ratLPS/% Inh @1.0 (mg/kg). It counts as in vivo. A general note: In an ELISA, binding on a coated surface is turned into a signal by an enzyme label.
The mark [4] stands for this setting: read-out: P38 alpha kinase IC50.
The mark [5] stands for this setting: TNF production, LPS-stimulated human whole blood, read-out: Human Whole Blood IC50.
The mark [6] stands for this setting: Rattus norvegicus, po, 5 mpk oral gavage, 4 h before LPS challenge, read-out: Rat LPS Model % Inhibition @ dose @ predose time.
Where [7] appears, read: TNF production, LPS-stimulated human whole blood, read-out: HWB IC50.
Setting [8] is: Rattus norvegicus, po, 1.0 mg/kg oral gavage, 4 hours before LPS challenge.
Where [9] appears, read: Rattus norvegicus, po, 5.0 mg/kg oral gavage, 4 hours before LPS challenge, read-out: ratLPS/% Inh @5.0 (mg/kg).

Where a name gives a salt, the structure may show the parent alone. Read-outs that look alike come from different tables or passages of the source.

T1 sequence (Q16539 whole entry): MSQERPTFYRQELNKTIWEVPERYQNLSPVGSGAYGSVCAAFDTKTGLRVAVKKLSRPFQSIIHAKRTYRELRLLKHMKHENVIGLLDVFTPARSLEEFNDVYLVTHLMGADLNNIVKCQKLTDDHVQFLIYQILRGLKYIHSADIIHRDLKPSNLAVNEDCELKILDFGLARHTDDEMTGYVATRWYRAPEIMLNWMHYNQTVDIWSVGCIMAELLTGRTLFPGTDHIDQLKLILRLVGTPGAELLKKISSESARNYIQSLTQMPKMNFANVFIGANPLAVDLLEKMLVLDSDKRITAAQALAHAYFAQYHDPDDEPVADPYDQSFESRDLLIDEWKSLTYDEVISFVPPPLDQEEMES

On to `CS(=O)(=O)N1CCC(c2[nH]nc(-c3ccc(Cl)cc3)c2-c2ccncc2)CC1` [Example C-78], for which the IC50 is 68 nM in assay [1] (setting [4]) and 10.5 µM in assay [2] (setting [5]). Moreover, the inhibition in vivo at 5 mg/kg in assay [3] (setting [6]) was 87%.
`C[C@H](O)C(=O)N1CCC(c2[nH]nc(-c3ccc(Cl)cc3)c2-c2ccncn2)CC1` [Example D-5, hydrochloride]: the results for the IC50 in assay [1] (read-out: p38 alpha IC50) and in assay [2] (setting [7]) were 140 nM and 4.09 µM, respectively. Further, the “ratLPS/% Inh @20.0 (mg/kg)” value in assay [3] (20.0 mg/kg oral gavage, 4 hours before LPS challenge) was found to be 83.0%. Besides, in assay [3] (setting [8]), the inhibition in vivo at 1 mg/kg stood at 65%. The inhibition in vivo at 5 mg/kg in assay [3] (setting [9]) stood at 78.5%.
On to `O=C(CO)N1CCC(c2[nH]nc(-c3cccc(C(F)(F)F)c3)c2-c2ccncn2)CC1` [Example D-13], for which the IC50 in assay [1] (read-out: p38 alpha IC50) was 330 nM; in assay [2] (setting [7]), 8.36 µM. Moreover, the inhibition in vivo at 1 mg/kg in assay [3] (setting [8]) was 53%. Besides, the inhibition in vivo at 5 mg/kg in assay [3] (setting [9]) came to 87%.
Regarding `CS(=O)(=O)N[C@H]1CC[C@@H](c2[nH]nc(-c3ccc(Cl)cc3)c2-c2ccncc2)CC1` [Example C-97, 5-cis-[4-N-(METHYLSULFONYL)AMINOCYCLOHEXYL]-4-(4-PYRIDYL)-3-(4-CHLOROPHENYL)PYRAZOLE], the results for the IC50 in assay [1] (setting [4]) and in assay [2] (setting [5]) were 25 nM and 3.83 µM, respectively. The inhibition in vivo at 5 mg/kg in assay [3] (setting [6]) amounted to 21%.
The like results for `FC(F)(F)c1cccc(-c2n[nH]c(C3CCNCC3)c2-c2ccncc2)c1` [Example C-86] were, in that order, 7 nM, 0.19 µM and 66%.
The like results for `CN1CCC(c2[nH]nc(-c3ccc(C(F)(F)F)cc3)c2-c2ccncc2)CC1` [Example C-84, 5-(N-METHYL-4-(4-PYRIDYL)-4-(4-PYRIDYL)-3-[4-(TRIFLUOROMETHYL)PHENYL]PYRAZOLE] were, in that order, 48 nM, 0.88 µM and 22%.
Consider `O=C(CO)N1CCC(c2[nH]nc(-c3ccc(C(F)(F)F)cc3)c2-c2ccncn2)CC1` [Example D-9], for which the IC50 in assay [1] (read-out: p38 alpha IC50) worked out at 1630 nM; in assay [2] (setting [7]), 15.8 µM. Moreover, in assay [3] (setting [8]), the inhibition in vivo at 1 mg/kg amounted to 5%. In addition, the inhibition in vivo at 5 mg/kg in assay [3] (setting [9]) amounted to 86%.
For `CN1CCC(c2[nH]nc(-c3ccc(Cl)cc3)c2-c2ccncc2)CC1` [Example C-75], the figures for the IC50 in assay [1] (setting [4]) and in assay [2] (setting [5]) were 45 nM and 0.4 µM, respectively. Further, the inhibition in vivo at 5 mg/kg in assay [3] (setting [6]) was determined as 71%.
`N[C@H]1CC[C@@H](c2[nH]nc(-c3ccc(Cl)cc3)c2-c2ccncc2)CC1` [Example C-92, 5-cis-(4-AMINOCYCLOHEXYL)-4-(4-PYRIDYL)-3-(4-CHLOROPHENYL)PYRAZOLE]: the IC50 was determined as 24 nM in assay [1] (setting [4]) and 0.28 µM in assay [2] (setting [5]). Besides, the inhibition in vivo at 5 mg/kg in assay [3] (setting [6]) came out at 66%.
As for `CC(C)N[C@H]1CC[C@@H](c2[nH]nc(-c3ccc(Cl)cc3)c2-c2ccncc2)CC1` [Example C-94, 5-[cis-4-N-(2-PROPYL)AMINOCYCLOHEXYL]-4-(4-PYRIDYL)-3-(4-CHLOROPHENYL)PYRAZOLE], the values for the IC50 in assay [1] (setting [4]) and in assay [2] (setting [5]) were 20 nM and 0.27 µM, respectively. For the same compound, the inhibition in vivo at 5 mg/kg in assay [3] (setting [6]) came out at 73%.
The like results for `CN1CCC(c2[nH]nc(-c3cccc(Cl)c3)c2-c2ccncc2)CC1` [Example C-89] were, in that order, 39 nM, 0.12 µM and 27%.
The matching figures for `COCc1[nH]nc(-c2ccc(Cl)cc2)c1-c1ccncc1` [Example C-115, 5-(METHOXYMETHYL)-4-(4-PYRIDYL)-3-(4-CHLOROPHENYL)PYRAZOLE]: 42 nM, 10.2 µM and 39%.
The matching figures for `CN1CCC[C@@H](c2[nH]nc(-c3ccc(F)cc3)c2-c2ccncc2)C1` [Example C-128]: 90 nM, 2.22 µM and 63%.
Turning to `CN1CCC[C@@H]1c1[nH]nc(-c2ccc(F)cc2)c1-c1ccncc1` [Example C-126, (R)-5-(N-METHYL-2-PYROLIDINYL)-4-(4-PYRIDYL)-3-(4-FLUOROPHENYL)PYRAZOLE], the figures for the IC50 in assay [1] (setting [4]) and in assay [2] (setting [5]) were 710 nM and over 25 µM, respectively. Also, the inhibition in vivo at 5 mg/kg in assay [3] (setting [6]) came out at 6%.
The like results for `CN(C)c1ccc(Cc2[nH]nc(-c3ccc(Cl)cc3)c2-c2ccncc2)cc1` [Example C-117] were, in that order, 3420 nM, 7.26 µM and 71%.
The matching figures for `CN(C)[C@H]1CC[C@@H](c2[nH]nc(-c3ccc(F)cc3)c2-c2ccncc2)CC1` [Example C-99, 5-(cis-4-N,N-DIMETHYLAMINOCYCLOHEXYL)-4-(4-PYRIDYL)-3-(4-FLUOROPHENYL)PYRAZOLE]: 62 nM, 0.38 µM and 36%.
Consider `CC(=O)Nc1ccc(Cc2[nH]nc(-c3ccc(Cl)cc3)c2-c2ccncc2)cc1` [Example C-118, 5-[4-(N-ACETYL)AMINOBENZYL]-4-(4-PYRIDYL)-3-(4-CHLOROPHENYL)PYRAZOLE], for which the IC50 is 298 nM in assay [1] (setting [4]) and over 25 µM in assay [2] (setting [5]). The inhibition in vivo at 5 mg/kg in assay [3] (setting [6]) is 39%.
As for `O=C([C@H](O)c1ccccc1)N1CCC(c2[nH]nc(-c3ccc(Cl)cc3)c2-c2ccncn2)CC1` [Example D-7, (R)-N-(2-Hydroxy-2-phenylacetyl)-5-(4-piperidyl)-4-(4-pyrimidyl)-3-(4-chlorophenyl)pyrazole], the IC50 in assay [1] (read-out: p38 alpha IC50) was 440 nM; in assay [2] (setting [7]) it was over 25 µM. Also, in assay [3] (setting [9]), the inhibition in vivo at 5 mg/kg came to 0%.
Regarding `CN1CCCC(c2[nH]nc(-c3ccc(F)cc3)c2-c2ccncc2)C1` (stereo not drawn) [Example C-91], the figures for the IC50 in assay [1] (setting [4]) and in assay [2] (setting [5]) were 54 nM and 2.31 µM, respectively. The inhibition in vivo at 5 mg/kg in assay [3] (setting [6]) stood at 63%.
The matching figures for `CC(=O)N1CCC(c2[nH]nc(-c3ccc(Cl)cc3)c2-c2ccncc2)CC1` [Example C-76]: 70 nM, 3.24 µM and 66%.
The like results for `COCC(=O)N1CCC(c2[nH]nc(-c3ccc(F)cc3)c2-c2ccncc2)CC1` [Example C-112] were, in that order, 540 nM, 6.36 µM and 89%.
The like results for `Clc1ccc(-c2n[nH]c(C3CCNCC3)c2-c2ccncc2)cc1` [Example C-74, 5-(4-piperidyl)-4-(4-pyridyl)-3-(4-chlorophenyl)pyrazole hydrochloride] were, in that order, 37 nM, 0.56 µM and 54%.
`Nc1ccc(Cc2[nH]nc(-c3ccc(Cl)cc3)c2-c2ccncc2)cc1` [Example C-116, 5-(4-AMINOBENZYL)-4-(4-PYRIDYL)-3-(4-CHLOROPHENYL)PYRAZOLE]: the IC50 in assay [1] (setting [4]) was 429 nM; in assay [2] (setting [5]) it was 0.5 µM. The inhibition in vivo at 5 mg/kg in assay [3] (setting [6]) turned out to be 53%.
The like results for `N[C@H]1CC[C@@H](c2[nH]nc(-c3ccc(F)cc3)c2-c2ccncc2)CC1` [Example C-98, 5-cis-(4-AMINOCYCLOHEXYL-4-(4-PYRIDYL)-3-(4-FLUOROPHENYL)PYRAZOLE] were, in that order, 16 nM, 0.64 µM and 78%.
For the compound `COCCN1CCC(c2[nH]nc(-c3ccc(Cl)cc3)c2-c2ccncc2)CC1` [Example C-79], the IC50 in assay [1] (setting [4]) turned out to be 45 nM; in assay [2] (setting [5]), 0.52 µM. In addition, the inhibition in vivo at 5 mg/kg in assay [3] (setting [6]) was found to be 83%.
With `CCN1CCC(Nc2cc(-c3c[nH]nc3-c3ccc(F)cc3)ccn2)CC1` [Example A-352, N-(1-ethyl-4-piperidinyl)-4-[3-(4-fluorophenyl)-1H-pyrazol-4-yl]-2-pyridinamine], in assay [2] (Table 9, human whole blood, LPS, read-out: TNF Inhibition-Human Whole Blood Assay), the IC50 stood at 9.8 µM. The inhibition in vivo at 20 mg/kg in assay [3] (Rattus norvegicus, po, Table 9, dose 20 mg/kg) stood at 36%.
Consider `CC(C)(N)C(=O)NCc1[nH]nc(-c2ccc(Cl)cc2)c1-c1ccncc1` [Example C-121], for which the IC50 in assay [2] (read-out: Human Whole Blood IC50, μM) was 15.3 µM. Besides, in assay [3] (Rattus norvegicus, po, read-out: Rat LPS Model % Inhibition @ dose @ predose time), the inhibition in vivo at 5 mg/kg came out at 39%.
Consider `O=C(CO)N1CCC(c2[nH]nc(-c3ccc(Cl)cc3)c2-c2ccncn2)CC1` [Example D-2, N-(2-Hydroxyacetyl)-5-(4-piperidyl)-4-(4-pyrimidyl)-3-(4-chlorophenyl)pyrazole hydrochloride], for which the IC50 in assay [2] (setting [7]) turned out to be 1.79 µM. In addition, the “ratLPS/% Inh @1.0 (mg/kg)” value in assay [3] (1.0 mg/kg oral gavage, 4 hours before LPS challenge, hydrochloride) came out at 89.0%. Also, the inhibition in vivo at 5 mg/kg in assay [3] (setting [9]) is 95%.
Consider `CN(C)[C@H]1CC[C@@H](c2[nH]nc(-c3ccc(C(F)(F)F)cc3)c2-c2ccncc2)CC1` [Example C-102, 5-cis-(4-N,N-DIMETHYLAMINOCYCLOHEXYL)-4-(4-PYRIDYL)-3-[4-(TRIFLUOROMETHYL)PHENYL]PYRAZOLE], for which the IC50 in assay [2] (setting [5]) came out at 7.56 µM. In addition, in assay [3] (setting [6]), the inhibition in vivo at 5 mg/kg is 72%.
In the case of `N[C@H]1CC[C@@H](c2[nH]nc(-c3ccc(C(F)(F)F)cc3)c2-c2ccncc2)CC1` [Example C-101, 5-cis-(4-AMINOCYCLOHEXYL)-4-(4-PYRIDYL)-3-[4-(TRIFLUOROMETHYL)PHENYL]PYRAZOLE], in assay [2] (setting [5]), the IC50 was 3.71 µM. The inhibition in vivo at 5 mg/kg in assay [3] (setting [6]) was 52%.
